Reference: patent US11466008B2, “Co-crystals of neflamapimod (VX-745)” (EIP Pharma, LLC, priority 2017, dated 2022)
Converted amounts (≈) assume the structure as drawn.

Experiments:
[1] = Dissolution study in FaSSIF at ambient temperature (HPLC; XRPD of remaining solids); details: for Concentration: FaSSIF, 3 hrs; for Concentration / ending solubility / peak solubility: ambient temperature; for ending solubility / peak solubility: medium: FaSSIF
Description: (§1) The first dissolution medium tested was fasted state simulated intestinal fluid (FaSSIF) at ambient temperature. […] The second dissolution medium tested was fed state simulated intestinal fluid (FeSSIF) at ambient temperature.
(§2) Upon the completion of each experiment, the remaining solid was recovered and analyzed by XRPD.
(§3) High-Performance Liquid Chromatography (HPLC) Analyses.

[2] = Dissolution study in FeSSIF at ambient temperature (HPLC; XRPD of remaining solids); details: for Concentration: FeSSIF; for Concentration / ending solubility / peak solubility: ambient temperature; for ending solubility / peak solubility: medium: FeSSIF
Description: as §1, §2, §3

[3] = Dissolution study in water at ambient temperature (HPLC); assay type: physicochemical
Procedure: HPLC analyses were carried out on an Agilent 1100 series instrument equipped with a UV detector using the following materials and operating parameters:
Dissolution studies were carried out for VX-745 at ambient temperature using water, as described by the HPLC Analysis protocol described above.
Dissolution studies were carried out for the CC-6 at ambient temperature using water, as described by the HPLC Analysis protocol described above.
Dissolution studies were carried out for the CC-11 at ambient temperature using water, as described by the HPLC Analysis protocol described above.

[4] = Estimated solubility of VX-745 in solvents (solvent aliquot addition, visual inspection); assay type: physicochemical; details: thermodynamic from solid
Procedure: Solubilities of VX-745 in several solvents were estimated. The experiments were carried out by adding test solvents in aliquots to weighed portions of solid. Whether dissolution had occurred was judged by visual inspection after addition of each solvent aliquot. Solubility numbers were calculated by dividing the total amount of solvent used to dissolve the sample by the weight of the sample. The actual solubilities may be greater than the numbers calculated because of the use of solvent aliquots that were too large or because of slow dissolution rates. […] The solubility number is expressed as “greater than or equal to” if dissolution occurred on addition of the first solvent aliquot.

[5] = FaSSIF (fasted state simulated intestinal fluid), fassif, thermodynamic from solid
[6] = FeSSIF (fed state simulated intestinal fluid), fessif, thermodynamic from solid

O=c1ncn2nc(Sc3ccc(F)cc3F)ccc2c1-c1c(Cl)cccc1Cl.[Cl][Zn][Cl] [CC-18]
Concentration [1]: 23630 ng/mL
ending solubility [1]: 22.57 µg/mL
peak solubility [1]: 34.49 µg/mL
Concentration ([2]; 2 mins (Table 17)): 88500 ng/mL
Concentration ([2]; 5 mins (Table 17)): 68530 ng/mL
Concentration ([2]; 10 mins (Table 17)): 56840 ng/mL
Concentration ([2]; 15 mins (Table 17)): 59400 ng/mL
Concentration ([2]; 25 mins (Table 17)): 47550 ng/mL
Concentration ([2]; 40 mins (Table 17)): 50990 ng/mL
Concentration ([2]; 1 hr (Table 17)): 47830 ng/mL
Concentration ([2]; 2 hrs (Table 17)): 50170 ng/mL
Concentration ([2]; 3 hrs (Table 17)): 47340 ng/mL
Concentration ([2]; 4 hrs (Table 17)): 49240 ng/mL
Concentration ([2]; 24 hrs (Table 17)): 34180 ng/mL
ending solubility [2]: 34.18 µg/mL
peak solubility [2]: 88.50 µg/mL

O=C(O)CCCC(=O)O.O=c1ncn2nc(Sc3ccc(F)cc3F)ccc2c1-c1c(Cl)cccc1Cl [CC-6]
Solubility ([3]; 2 mins): 23.78 µg/mL
Solubility ([3]; 5 mins): 39.17 µg/mL
Solubility ([3]; 10 mins): 51.39 µg/mL
Solubility ([3]; 15 mins): 67.49 µg/mL
Solubility ([3]; 25 mins): 68.93 µg/mL
Solubility ([3]; 40 mins): 65.28 µg/mL
Solubility ([3]; 1 hr): 59.85 µg/mL
Solubility ([3]; 2 hrs): 54.11 µg/mL
Solubility ([3]; 3 hrs): 50.75 µg/mL
Solubility ([3]; 4 hrs): 57.07 µg/mL
ending solubility [1]: 1.59 µg/mL
peak solubility [1]: 3.75 µg/mL
Concentration ([2]; 3 mins): 1280 ng/mL
ending solubility [2]: 2.38 µg/mL
peak solubility [2]: 1.87 µg/mL

O=c1ncn2nc(Sc3ccc(F)cc3F)ccc2c1-c1c(Cl)cccc1Cl.Oc1ccccc1 [CC-11]
Solubility ([3]; 2 mins): 10.19 µg/mL
Solubility ([3]; 5 mins): 57.50 µg/mL
Solubility ([3]; 10 mins): 43.26 µg/mL
Solubility ([3]; 15 mins): 36.28 µg/mL
Solubility ([3]; 25 mins): 35.33 µg/mL
Solubility ([3]; 40 mins): 21.33 µg/mL
Solubility ([3]; 1 hr): 15.09 µg/mL
Solubility ([3]; 2 hrs): 17.11 µg/mL
Solubility ([3]; 3 hrs): 12.30 µg/mL
Solubility ([3]; 4 hrs): 13.98 µg/mL

O=c1ncn2nc(Sc3ccc(F)cc3F)ccc2c1-c1c(Cl)cccc1Cl [VX-745, 5-(2,6-dichlorophenyl)-2-(2,4-difluorophenylthio)-6H-pyrimido[1,6-b]pyridazin-6-one]
Solubility ([4]; organic solvent or mixture, solvent acetone): 7000 µg/mL (≈ 16000 µM)
Solubility ([4]; organic solvent or mixture, solvent acetonitrile): 9000 µg/mL (≈ 20600 µM)
Solubility ([4]; organic solvent or mixture, solvent ethanol): 2000 µg/mL (≈ 4580 µM)
Solubility ([4]; organic solvent or mixture, solvent ethyl acetate): < 1000 µg/mL
Solubility ([4]; organic solvent or mixture, solvent isopropyl alcohol): 1000 µg/mL (≈ 2290 µM)
Solubility ([4]; organic solvent or mixture, solvent methanol): 10000 µg/mL (≈ 22900 µM)
Solubility ([4]; organic solvent or mixture, solvent tetrahydrofuran (THF)): 4000 µg/mL (≈ 9170 µM)
Solubility ([4]; solvent water): < 1000 µg/mL
solubility at 2 min ([3]; thermodynamic from solid, 2 mins): 11.3 µg/mL (≈ 25.9 µM)
solubility at 5 min ([3]; thermodynamic from solid, 5 mins): 15.7 µg/mL (≈ 35.9 µM)
solubility at 10 min ([3]; thermodynamic from solid, 10 mins): 14.9 µg/mL (≈ 34.2 µM)
solubility at 15 min ([3]; thermodynamic from solid, 15 mins): 17.8 µg/mL (≈ 40.8 µM)
solubility at 25 min ([3]; thermodynamic from solid, 25 mins): 15.5 µg/mL (≈ 35.6 µM)
solubility at 40 min ([3]; thermodynamic from solid, 40 mins): 10.7 µg/mL (≈ 24.5 µM)
solubility at 1 h ([3]; thermodynamic from solid, 1 hr): 6.59 µg/mL (≈ 15.1 µM)
solubility at 2 h ([3]; thermodynamic from solid, 2 hrs): 5.67 µg/mL (≈ 13 µM)
solubility at 3 h ([3]; thermodynamic from solid, 3 hrs): 6.32 µg/mL (≈ 14.5 µM)
solubility at 4 h ([3]; thermodynamic from solid, 4 hrs): 11.3 µg/mL (≈ 25.9 µM)
solubility at 5 min [1, 5]: 17.8 µg/mL (≈ 40.8 µM)
solubility at 24 h [1, 5]: 9.07 µg/mL (≈ 20.8 µM)
Concentration [1]: 5810 ng/mL
solubility at 3 h [2, 6]: 21.4 µg/mL (≈ 48.9 µM)
solubility at 24 h [2, 6]: 14 µg/mL (≈ 32.1 µM)
Concentration ([2]; 3 hrs): 21350 ng/mL
